# Key:
# [1] = Radioligand binding assay using antibody and [3H]-cocaine; conditions: [3H]-cocaine radioligand binding; read-out: dissociation constant (Kd) for cocaine
# Description: (§1) In another embodiment, an antibody binds cocaine or a derivative thereof. […] Other examples of cocaine derivatives include: (−) cocaine; cocaine propyl ester; RTI-128; RTI-66; RTI-160; RTI-192; m-hydroxycocaine; WIN 35,065-2; WIN 35,428; RTI-31; RTI-32; RTI-55; RTI-111; m-hydroxybenzoylecgonine; p-hydroxybenzoylecgonine; RTI-113; tropine; benztropine; 4′,4″-difluoro-3α-diphenylmethoxytropane; hyoscyamine-N-oxide; methylanisotropine; tropisetronmethiodide; anisodine; scopotamine; scopotamine-N-oxide; methylscopolamine; N-butylscopolamine; (−) pseudococaine; (+) cocaine; norcaine; benzoylnorecgonine; (+) pseudococaine; ecgonidine; exo-6-hydroxytropinone; and methylcocaethylene.
# [2] = 2E2 in vivo pharmacokinetics, blood mAb by ELISA; conditions: mice
# Description: Then at varying times, to obtain blood samples for mAb quantification, the mice are anesthetized using isoflurane and a sterile 27-gauge hypodermic needle or, alternatively, a sterile scalpel blade is used to puncture or make a small cut in a tail vein and 10 μl of blood is collected using a heparinized capillary pipette tip. The blood is immediately placed in a 1.5 ml polypropylene microcentrifuge tube containing 40 μl of 0.1 M sodium citrate/0.1% sodium azide pH 4.75. These samples are then rapidly placed on ice and then stored at 4° C. until use.
# Briefly, the conjugate benzoylecgonine-ovalbumin (3 μg/ml, 100 μl/well) in 1 mM EGTA pH 7.4 is adsorbed onto PVC 96-well microtiter plates for 1 hr. The plates are then washed 3 times with, and all wells exposed for 10 min to, 0.5% BSA in TBS (10 mM Tris, 140 mM NaCl and 0.02% NaN3, pH 6.9) in order to block non-specific protein binding. The second layer, 100 μl/well of the blood samples diluted (1:500) into BSA-TBS, is added and the sample is incubated for 2 hr. […] The plates are washed with a Solution A, containing 0.5% BSA, 10 mM sodium phosphate, 145 mM NaCl, 1.5 mM MgCl2, 0.05% triton X-100 and 0.02% NaN3, pH 7.2. Then 50 μl/well of affinity-purified biotinylated goat anti-human IgG diluted 1:500 in Solution A is added and incubated for 1 hr. After washing, 50 μl/well of streptavidin-alkaline phosphatase, diluted (1:200) in Solution A, is added, incubated for 1 hr and removed. Then 50 μl/well of the colorimetric reaction mixture, comprised of the substrate para-nitrophenylphosphate (1 mg/ml) in substrate buffer (50 mM Na2CO3, 50 mM NaHCO3 1 mM MgCl2 at pH 9.8), is added. After 6-8 min the reaction is stopped with 1M sodium hydroxide (50 μl/well). […] The reaction endpoint is measured with an ELISA reader at a wavelength of 405 nm. […]
# The program provides Akaike Information Criterion (AIC) and Schwartz Bayesian Criterion (SBC) measures of “goodness of fit” of the data to the one or two compartment pharmacokinetic models that are used. Data are first analyzed according to a single compartment pharmacokinetic model.
# [3] = Effect of infused mAbs on plasma and brain cocaine concentrations and pharmacokinetics; format: in vivo, mice
# [4] = Effect of 2E2 on cocaine metabolite concentrations in plasma and brain; format: in vivo; conditions: mice
# [5] = molecular target: anti-cocaine antibody (present antibodies); assay: Competition assays with constant [3H]-cocaine and nonradioactive competitors at the antibody; conditions: competition with [3H]-cocaine at antibody; read-out: binding inhibition constant (Ki)
# Description: as §1
# [6] = Cocaine pharmacokinetics in plasma and brain (GC/MS), absence of mAb; conditions: for mean metabolite concentration in brain / mean metabolite concentration in plasma: 5 min after cocaine injection
# Description: Jugular vein catheterized male Swiss-Webster mice (22-28 g at the start of the studies) are purchased. Mice are housed individually with free access to food and water and kept on a 12 h light/dark cycle.
# The antibody (3-5 mg/ml) in phosphate-buffered saline (PBS) or vehicle (PBS) is infused at a rate of approximately 0.35 ml/min for up to two min, depending on the antibody concentration and the body weight of the animal, with the animal held under mild restraint. One hour after completion of the infusion of mAb, cocaine HCl (0.56 mg/kg) plus heparin (400 units/kg) is injected intravenously through the same catheter at a volume of 4.0 ml/kg body weight. At most sampling times, sodium pentobarbital (45 mg/kg, i.p) is administered three minutes prior to sacrificing the animal. For the 0.75 min time point the cocaine is injected into anesthetized mice. At the designated times after the injection of cocaine, anesthetized mice are sacrificed by decapitation and trunk blood (typically 0.8-1.2 ml) is collected in a 1.5 ml polypropylene microcentrifuge tube containing 11.2 μl heparin (1.0 unit/μl) and NaF (16 mg/0.8 ml of blood) to inhibit, respectively, blood coagulation and enzymatic hydrolysis of cocaine. The blood samples are centrifuged at 5,000×g for 3 min, then the plasma (typically 0.4-0.8 ml) is carefully separated from packed red blood cells, placed into sterile 1.5 ml Eppendorf microcentrifuge tubes, rapidly frozen on dry ice and then stored at −80° C. until analysis.
# The whole brain is quickly removed from the decapitated mice, surface blood is blotted away, and the brain is placed in a polypropylene tube, rapidly frozen on dry ice and then stored at −80° C. until analysis. For analysis, brains are weighed and cold deionized, distilled water added to produce a total volume of 1 ml, then homogenized and centrifuged at 13,000 rpm for 45 min at 4° C. The resulting supernatants (0.4-0.6 ml) are collected into sterile polypropylene microcentrifuge tubes and an aliquot (0.05-0.40 ml) is processed for cocaine/metabolite analysis by GC/MS and hemoglobin content. Any remaining sample is stored at −80° C.
# In order to determine in vivo concentrations of cocaine and its metabolites BE and EME, following the i.v. injection of cocaine, 100-400 μl samples of heparinized/NaF treated plasma and 400 μl samples of brain homogenates obtained from cocaine-treated animals are added to 2 ml of 0.1 M Na phosphate buffer, pH 6.0. This is followed by the addition of 5% trichloroacetic acid at a volume equal to that of the experimental sample (100-400 μl). These mixtures are shaken for 20 minutes and then centrifuged for 15 min at 7000 rpm, all at room temperature, in order to precipitate the denatured protein. The supernatants are collected and adjusted to pH 5.4 with 10 M NaOH. Then to serve as internal standards for establishing the identification of cocaine and its metabolites as well as for normalization of the recovery of cocaine/metabolites from the mouse samples, 50 μl of a sample containing deuterated (D3) cocaine-D3, BE-D3 and EME-D3 (each at 1 μg/ml) is added to all of the experimental and the standard control samples before their undergoing solid-phase extraction/column elution. Duplicate, standard control tubes (2 ml) are also prepared containing; 0.1 M Na phosphate buffer, 50 μl of the internal standards D3 cocaine/BE/EME (1 μg/ml, each), 200 μl of normal mouse plasma and varying amounts of cocaine (1-500 ng) and used to generate the standard cocaine concentration curves. Similarly, standard concentration curves are also generated for BE and EME.
# [7] = mice, 5 min after i.v. cocaine, stoichiometric mAb dose
compound,measurement,setting,value
2E2: anti-cocaine mAb with human gamma heavy chain (SEQ ID NO: 2) and murine lambda light chain (SEQ ID NO: 1),Kd,[1],4 nM
same,elimination t1/2 of 2E2 in blood,"[2]; 120 mg/kg i.v. infusion, single compartment model",194 h
same,initial blood concentration of mAb (mean±SEM),"[2]; 120 mg/kg i.v., 3 minutes after infusion, n=8",370 ± 17 µg/mL
same,mean blood concentration of 2E2,"[2]; 120 mg/kg i.v., 24 hours after infusion",422 ± 21 µg/mL
same,brain cocaine concentration at highest mAb dose,"[3]; mice, 360 mg/kg (3:1 mAb:drug), corrected for residual blood",negligible
same,increase in plasma cocaine concentrations,"[3]; mice, 2E2 12 mg/kg (1:10 mAb:cocaine), 5 min",5.1 fold
same,decrease in brain cocaine concentrations,"[3]; mice, 2E2 24 mg/kg, 5 min",35%
same,"peak plasma cocaine concentration, presence vs absence of 2E2","[3]; mice, 2E2 120 mg/kg",11.3 fold
same,t1/2 of cocaine in plasma in the presence of mAb,"[3]; mice, 2E2 120 mg/kg (equimolar), single compartment model",17.1 min
same,peak plasma cocaine concentration in the presence of 2E2,"[3]; mice, 2E2 120 mg/kg, 45 sec after cocaine […] i.v.","~1,100 ng/ml"
same,peak brain cocaine concentration in the presence of 2E2,"[3]; mice, 2E2 120 mg/kg, earliest sample time",~490 ng/g
same,elimination t1/2 of cocaine in brain in the presence of 2E2,"[3]; mice, 2E2 120 mg/kg, single compartment model",3.8 min
same,increase in plasma cocaine concentrations,"[3]; mice, 2E2 360 mg/kg (3:1 ratio), 5 min",46.1 fold
same,decrease in brain cocaine concentration vs vehicle controls,"[3]; mice, 5 min, Table 1",~5 fold
same,increase in plasma cocaine concentration vs vehicle controls,"[3]; mice, 5 min, Table 1",29 fold
same,Change from vehicle (brain cocaine concentration),[3]; [7],−4.8-fold
same,Change from vehicle (plasma cocaine concentration),[3]; [7],+28.7-fold
same,Vdss of cocaine in the presence of mAb,"[3]; mice, equimolar dose of 2E2",0.2 L/kg
same,increase in plasma cocaine AUC,"[3]; mouse, in vivo",26 fold
same,effect of 2E2 dose on brain EME concentrations,[4],no systematic effect
same,effect on brain BE concentrations,[4]; 2E2 doses above 40 mg/kg,concomitant decrease
same,reduction in plasma EME concentrations,[4]; highest dose of 2E2,~2 fold
same,increase in plasma BE concentrations,"[4]; increasing doses of 2E2, plateau above 40 mg/kg",~3 fold
CN1[C@H]2CC[C@@H]1[C@@H](C(=O)O)[C@@H](OC(=O)c1ccccc1)C2 [benzoylecgonine],Ki,[5],43 nM
same,mean metabolite concentration in brain,"[6]; mice, absence of 2E2",16 ng/g
same,mean metabolite concentration in plasma,"[6]; mice, absence of 2E2",7 ng/mL
CCOC(=O)[C@@H]1C2CCC(C[C@@H]1OC(=O)c1ccccc1)N2C (stereo partly shown) [cocaethylene],Ki,[5],3.4 nM
COC(=O)[C@H]1[C@@H](OC(=O)c2ccccc2)C[C@@H]2CC[C@H]1N2C [cocaine],half-life,"[6]; male, Swiss-Webster, mouse, brain, iv, […], t1/2 for entry (input) of cocaine into the brain, mice, absence of 2E2",2 min
same,Vd,"[6]; male, Swiss-Webster, mouse, plasma, iv, […]",6 L/kg
same,half-life,"[6]; male, Swiss-Webster, mouse, plasma, iv, […], plasma distribution half-life (t1/2α) of cocaine, mice, cocaine HCl […] i.v., absence of 2E2, two-compartment model",1.9 min
same,half-life,"[6]; male, Swiss-Webster, mouse, plasma, iv, […], plasma terminal elimination half-life (t1/2β) of cocaine, mice, cocaine HCl […] i.v., absence of 2E2, two-compartment model",26.1 min
same,plasma terminal elimination half-life (t1/2β) of cocaine,"[6]; mice, cocaine HCl […] i.v., absence of 2E2, two-compartment model",26 min
same,brain t1/2α of cocaine,"[6]; mice, i.v., absence of 2E2, two-compartment model",2.0 min
same,highest measured brain cocaine concentration,"[6]; mice, i.v., at 3 min, absence of 2E2","~1,500 ng/g"
same,highest plasma cocaine concentration,"[6]; mice, i.v., earliest sample time (45 sec), absence of 2E2",~110 ng/mL
same,brain t1/2β of cocaine,"[6]; mouse, in vivo, iv",14.5 min
COC(=O)[C@@H]1[C@H]2CC[C@@H](C[C@@H]1O)N2C [ecgonine methyl ester],Ki,[5],5200 nM
same,mean metabolite concentration in brain,"[6]; mice, absence of 2E2",267 ng/g
same,mean metabolite concentration in plasma,"[6]; mice, absence of 2E2",25 ng/mL
CN1[C@H]2CC[C@@H]1[C@@H](C(=O)O)[C@@H](O)C2 [ecogonine],Ki,[5],95000 nM
